Reference: US5342925A, “Radioactive compositions for soft tissue tumors” (priority 1991, dated 1994)
Values joined by “and” are separate entries in the source; they are usually repeats but may differ in a detail not shown here. Equal entries are not always repeated. Blank lines part the entries; values can stand above or below the compound they belong to.

Legend:
[1] = Bone and liver uptake scored from scintigraphic images of miniature pigs with melanotic lesions; format: in vivo
Method: (§1) Images (right lateral, left lateral and dorsal) were made at 4, 24, 48 and 72 hours.
(§2) 1--Slight uptake (negligible)
(§3) 2--Moderate uptake (intermediate )
(§4) 3--Definite uptake (high)
(§5) The average of the 3 investigators independent scores were used in the following table.

[2] = Whole body retention (whole body counts after I.V. injection) in miniature pigs with melanotic lesions; format: in vivo; conditions: for % Whole Body Retention (24 hrs.): I.V., 1-2 mCi 153Sm, % = percentage of injected dose
Method: as §1

[3] = tested on: naturally occurring melanotic lesions; assay: Tumor uptake scored from images of miniature pigs with naturally occurring melanotic lesions; format: in vivo; conditions: 24 hour images, average score of 3 investigators, scale 0-3
Method: as §1, §2, §3, §4, §5

[4] = in vivo; cited from earlier work
Ehrlich tumors = conditions: experimental animals bearing Ehrlich tumors; cited from earlier work
[5] = 24 hour images, average score of 3 investigators, scale 0-3
[6] = Comparative Example A, in words

Compound: CC(=O)Nc1cc(CN(CC(=O)O)CC(=O)O)c(O)c(CN(CC(=O)O)CC(=O)O)c1.[153Sm+3] [Example 1]
- Bone Uptake [1, 5]: 3.00
- Liver Uptake [1, 5]: 0.67
- % Whole Body Retention (24 hrs.) [2]: 29.5% and 40.1%
- Tumor Uptake (Dorsal neck) [3]: 3.00
- Tumor Uptake (Left stifle) [3]: 2.00
- Tumor Uptake (Right head) [3]: 0.67
- Tumor Uptake (Right thorax) [3]: 2.00

Compound: CC(=O)Nc1ccc(O)c(CN(CC(=O)O)CC(=O)O)c1.[153Sm+3] [Example 2]
- Bone Uptake [1, 5]: 1.33 and 2.33
- Liver Uptake [1, 5]: 2.00 and 1.00
- % Whole Body Retention (24 hrs.) [2]: 60.7% and 46.6%
- Tumor Uptake (Dorsal neck) [3]: 3.00
- Tumor Uptake (Left stifle) [3]: 2.00
- Tumor Uptake (Right head) [3]: 0.00
- Tumor Uptake (Right thorax) [3]: 0.00
- Tumor Uptake (draining node) ([3]; draining node): 0.00

Compound: CC(=O)Nc1cc(CN(CC(=O)O)CC(=O)O)c(O)c(CN(CC(=O)O)CC(=O)O)c1.[153Sm+3] [Example 3]
- % Whole Body Retention (24 hrs.) [2]: 42.9% and 37.1%
- Tumor Uptake (Left sacrum) ([3]; Left sacrum): 3.00
- Tumor Uptake (Right nasal) ([3]; Right nasal): 2.00
- Tumor Uptake (Right stifle) ([3]; Right stifle): 0.00

Compound: CC(=O)Nc1cc(CN(CC(=O)O)CC(=O)O)c(O)c(CN(CC(=O)O)CC(=O)O)c1.[153Sm+3] [Example 4]
- Bone Uptake [1, 5]: 1.67
- Liver Uptake [1, 5]: 3.00 and 2.00
- % Whole Body Retention (24 hrs.) [2]: 55.2% and 48.2%
- Tumor Uptake (Left carpus) ([3]; Left carpus): 0.00
- Tumor Uptake (Left stifle) [3]: 0.00
- Tumor Uptake (Right ear) ([3]; Right ear): 2.00

- Liver Uptake [1, 6]: unacceptably large liver uptake
- clearance from extracellular fluid [2, 6]: never cleared the extracellular fluid
Compound: O=C([O-])CC(O)(CC(=O)[O-])C(=O)[O-].[67Ga+3] [^67 Ga-citrate, reference compound]

Compound: O=C([O-])CN(CCN(CC(=O)[O-])CC(=O)[O-])CCN(CC(=O)[O-])CC(=O)[O-].[99Tc+4] [^99m Tc-DTPA]
- elimination route [4]: eliminated from the body by the kidneys into the urine
- tissue localization [4]: does not result in the radionuclide localizing in any tissue

Compound: O=C(O)CN(CCN(CC(=O)O)CC(=O)O)CC(=O)O [ethylenediaminetetraacetic acid (EDTA), ethylenediaminetetraacetic acid]
- tumor imaging (Ehrlich tumors): less effective

Compound: O=C(O)CN(CCO)CCN(CC(=O)O)CC(=O)O [hydroxyethylethylenediaminetriacetic acid]
- tumor imaging (Ehrlich tumors): less effective

Compound: O=C(O)CNCC(=O)O [iminodiacetic acid (IDA), iminodiacetic acid]
- tumor imaging (Ehrlich tumors): less effective

Compound: CN(CC(=O)O)CC(=O)O [methyliminodiacetic acid (MIDA), methyliminodiacetic acid]
- tumor imaging (Ehrlich tumors): less effective

Compound: O=C(O)CN(CC(=O)O)CC(=O)O [nitrilotriacetic acid (NTA), nitrilotriacetic acid]
- tumor imaging (Ehrlich tumors): less effective

Compound: ^99m Tc-ethylenediaminediacetic acid
- tumor imaging (Ehrlich tumors): could be used to image tumors
